Source: patent publication US9045524B2, “Selective caspase inhibitors and uses thereof” (NOVAGENESIS FOUNDATION, priority 2009, dated 2015)
Peptide text beside a SMILES is read from it. * marks the point of attachment. Cbz = O=C(OCc1ccccc1)*; CH2F = FC*

Experiments:
EAE in C57BL/6 mice = test: Chronic EAE mouse model (MOG35-55 immunization), daily clinical score and body weight; format: in vivo; parameters: key to Delay in onset of the disease / Reduction in severity of the disease / Reduction in body weight loss: +++: high level improvement; ++: moderate improvement; +: small improvement; −: no improvement; settings: for Delay in onset of the disease / Reduction in body weight loss / Reduction in severity of the disease: average overall effects on the EAE model, i.p.
Description: The aim of this study was to verify the effectiveness of compounds in a chronic mouse animal model of EAE. EAE is a good proof-of-principle model of neurodegeneration since it encompasses degeneration or destruction of practically all the cells in the central nervous system, includes most major immunomodulatory components, and is able to maintain normal innate regenerative functions in the animal. This is a standard model (Antel J P et al., J Neurosci Res. 1997, 50: 345-353) used mainly to mimic the course evolution of Multiple Sclerosis (MS) in humans, and is commonly used for studying disease mechanisms and testing potential therapies. EAE is induced by immunization with myelin proteins, leading to development of myelin-specific T cells. These autoreactive T cells traffic into CNS parenchyma where they initiate an inflammatory cascade through recruitment of other cells such as monocytes and neutrophils. Accumulation of immune cells within CNS leads to myelin damage, axonal loss and clinical deficit in affected animals. EAE can be induced in a variety of species and strains of animals [mice, Rat, marmoset monkey, rhesus macaques] using various CNS antigens [Myelin Oligodendrocyte Glycoprotein (MOG), proteolipid protein (PLP) and myelin basic protein (MBP)]. Seven to 8 week old female C57BL/6 mice were purchased from Charles River Laboratories, and housed at MISPRO™ animal facility for one week before experimentation for adaptation to the new environment. All proper animal experimentation and ethics approvals were obtained prior to the start of any experiments. Mice were immunized subcutaneously with 100 μg of MOG35-55 (Sheldon Biotechnology Centre, McGill University) in CFA containing 5 mg/ml of desiccated (killed and dried) Mycobacterium tuberculosis H37Ra (Difco, Inc), at two sites on the back. The mice were then injected with 200 ng of pertussis toxin (List Biological Laboratories, Inc) in PBS intraperitoneally on days 0 and 2 using 25 gauge needles and scored daily using an EAE clinical scale as detailed below (Touil T et al., J Neurol Sci. 2008, 271:191-202; Antel J P et al., 1997, supra; Owens T et al., Curr Pharm Des. 2005, 1:1031-1037).
EAE was clinically assessed throughout the experiments by daily scoring using a scale from 0 to 5 as follows: partial limp tail, 0.5; full limp tail, 1; limp tail and waddling gait, 1.5; paralysis of one hind limb, 2; paralysis of one hind limb and partial paralysis of other hind limb, 2.5; paralysis of both hind limbs, 3; ascending paralysis, 3.5; paralysis of trunk, 4; moribund, 4.5; death, 5. In all the EAE models a body weight loss is always associated with the clinical signs. This body weight loss is associated with the loss of the function and the paralysis of the muscle (atrophy inducing loss of weight). For animals showing a clinical sign of 2 or more, the food and the water were presented inside the cage to facilitate eating and drinking.
At the onset of clinical signs of EAE, the mice were treated with 200 μl of Compound 51, 53, 57, 59, 101, 104, 105, 111 or 123 dissolved in 2.5% Dimethyl sulfoxide (DMSO) in PBS, while placebo groups were treated with 2.5% Dimethyl sulfoxide (DMSO) in PBS only, by intraperitoneal injection at different time of the clinical evolution.

Caspase-2 = Caspase-2 (Homo sapiens (Human), UniProt P42575); test: Fluorometric enzymatic assay, active recombinant Caspase-2; format: biochemical; settings: 10-point titration 0.1 nM to 3.3 μM, 30-minute incubation at 37° C.; read-out: IC50 values (μM) Caspase-2
Caspase-2, sequence (P42575 170-325): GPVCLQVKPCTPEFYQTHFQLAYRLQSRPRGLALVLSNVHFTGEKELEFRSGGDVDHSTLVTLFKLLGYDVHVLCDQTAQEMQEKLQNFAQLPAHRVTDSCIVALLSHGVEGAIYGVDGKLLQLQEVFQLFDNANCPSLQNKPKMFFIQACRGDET
Caspase-2, sequence (P42575 348-452): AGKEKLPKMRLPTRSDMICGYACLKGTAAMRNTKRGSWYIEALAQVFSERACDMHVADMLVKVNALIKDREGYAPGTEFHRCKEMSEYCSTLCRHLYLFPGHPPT
Method: (§1) . In brief, each compound was serially diluted for a final test concentration range of 0.1 nM to 3.3 μM (10-point titration). Each active recombinant Caspase (Active Recombinant Caspase Set IV™ (BioVision, Cat# K233-10-25)) was added to the respective wells of the 96-well High Efficiency™ plates (Molecular Devices, Cat#75-000-0005), followed by the addition of the diluted test compounds. DMSO (Final=1%) or Z-VAD-FMK (Caspase-Family Inhibitor, Z-VAD-FMK (BioVision, Cat#1010-100), Final concentration=20 uM) was added in the designated wells as a background control or positive inhibitor control respectively. Each dilution of the test compounds was tested in duplicates, whereas the DMSO or Z-VAD-FMK controls were tested in triplicates. The synthetic peptide substrate specific for each Caspase (BioVision) was then added to the respective wells, which when cleaved by the active caspase releases free AFC that can be quantified by fluorometry. After a 30-minute incubation at 37° C., the plates were read using the Flexstation 3™ with a 400 nm excitation filter and a 505 nm emission filter (cutoff at 495 nm). The inhibition efficiency and the IC50 values of the test compounds were then determined by comparing the fluorescence intensity (FI) of the test compounds with that of the DMSO control.
(§2) The SoftMax Pro Software™ (v5.2 rev C, Molecular Devices) was used for data analysis. The % Inhibition is calculated by: % Inhibition=[FI(DMSO)−FI(test sample)/FI(DMSO)]×100. The % Inhibition vs. Log(concentration) was plotted, and the curve was fitted using the 5-parameter fit of the software.

Caspase-5 = Caspase-5 (Homo sapiens (Human), UniProt P51878); test: Fluorometric enzymatic assay, active recombinant Caspase-5; format: biochemical; settings: 10-point titration 0.1 nM to 3.3 μM, 30-minute incubation at 37° C.; read-out: IC50 values (μM) Caspase-5
Caspase-5, sequence (P51878 whole entry, looked up): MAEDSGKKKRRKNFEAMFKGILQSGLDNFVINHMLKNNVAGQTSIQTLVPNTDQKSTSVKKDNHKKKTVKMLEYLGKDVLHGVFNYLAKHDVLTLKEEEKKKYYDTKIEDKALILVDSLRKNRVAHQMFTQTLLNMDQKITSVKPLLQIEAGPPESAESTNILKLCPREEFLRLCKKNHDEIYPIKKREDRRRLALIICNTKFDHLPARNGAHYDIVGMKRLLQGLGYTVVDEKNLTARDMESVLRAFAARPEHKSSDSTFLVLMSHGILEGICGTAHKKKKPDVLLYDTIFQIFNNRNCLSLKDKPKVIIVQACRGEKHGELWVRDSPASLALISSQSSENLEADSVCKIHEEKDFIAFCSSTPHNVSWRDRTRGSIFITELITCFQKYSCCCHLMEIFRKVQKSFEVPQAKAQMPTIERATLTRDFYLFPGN
Caspase-5, sequence (P51878 whole entry, looked up): as above
Method: as §1, §2

Caspase-6 = Caspase-6 (Homo sapiens (Human), UniProt P55212); test: Fluorometric enzymatic assay, active recombinant Caspase-6; format: biochemical; settings: 10-point titration 0.1 nM to 3.3 μM, 30-minute incubation at 37° C.; read-out: IC50 values (μM) Caspase-6
Caspase-6, sequence (P55212 24-179): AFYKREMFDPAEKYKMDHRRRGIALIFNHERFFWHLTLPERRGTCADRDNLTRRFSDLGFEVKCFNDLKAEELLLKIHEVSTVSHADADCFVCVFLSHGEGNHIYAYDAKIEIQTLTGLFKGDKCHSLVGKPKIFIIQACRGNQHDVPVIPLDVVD
Caspase-6, sequence (P55212 194-293): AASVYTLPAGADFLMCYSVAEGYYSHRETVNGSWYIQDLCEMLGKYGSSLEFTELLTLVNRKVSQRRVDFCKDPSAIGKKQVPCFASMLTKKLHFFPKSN
Method: as §1, §2

Caspase-8 = Caspase-8 (Homo sapiens (Human), UniProt Q14790); test: Fluorometric enzymatic assay, active recombinant Caspase-8; format: biochemical; settings: 10-point titration 0.1 nM to 3.3 μM, 30-minute incubation at 37° C.; read-out: IC50 values (μM) Caspase-8
Caspase-8, sequence (Q14790 217-374): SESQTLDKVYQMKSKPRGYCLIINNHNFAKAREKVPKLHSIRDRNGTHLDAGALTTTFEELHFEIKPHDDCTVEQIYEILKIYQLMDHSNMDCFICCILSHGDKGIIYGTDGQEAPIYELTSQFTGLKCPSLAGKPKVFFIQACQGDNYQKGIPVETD
Caspase-8, sequence (Q14790 385-479): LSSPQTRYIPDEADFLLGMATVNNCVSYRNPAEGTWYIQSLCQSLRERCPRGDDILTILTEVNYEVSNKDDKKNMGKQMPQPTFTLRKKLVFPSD
Method: as §1, §2

Caspase-1 = Caspase-1 (Homo sapiens (Human), UniProt P29466); test: Fluorometric enzymatic assay, active recombinant Caspase-1; settings: read-out: IC50 values (μM) Caspase-1; 10-point titration 0.1 nM to 3.3 μM, 30-minute incubation at 37° C.
Caspase-1, sequence (P29466 whole entry, looked up): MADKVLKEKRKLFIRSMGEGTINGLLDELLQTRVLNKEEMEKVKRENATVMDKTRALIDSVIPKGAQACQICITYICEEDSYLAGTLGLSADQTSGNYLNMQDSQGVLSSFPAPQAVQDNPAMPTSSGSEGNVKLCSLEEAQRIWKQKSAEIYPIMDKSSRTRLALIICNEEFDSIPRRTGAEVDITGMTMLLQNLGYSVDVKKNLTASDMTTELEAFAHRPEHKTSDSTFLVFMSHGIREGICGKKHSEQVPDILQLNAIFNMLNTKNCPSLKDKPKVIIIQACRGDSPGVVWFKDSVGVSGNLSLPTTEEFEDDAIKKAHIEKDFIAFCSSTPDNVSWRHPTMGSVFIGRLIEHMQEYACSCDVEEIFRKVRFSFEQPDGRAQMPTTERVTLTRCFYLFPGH
Caspase-1, sequence (P29466 whole entry, looked up): as above
Method: (§3) Each dilution of the test compounds was tested in duplicates, whereas the DMSO or Z-VAD-FMK controls were tested in triplicates. […] The inhibition efficiency and the IC50 values of the test compounds were then determined by comparing the fluorescence intensity (FI) of the test compounds with that of the DMSO control.

Caspase-3 = Caspase-3 (Homo sapiens (Human), UniProt P42574); test: Fluorometric enzymatic assay, active recombinant Caspase-3; settings: for inhibitory activity towards Caspase-3: FIG. 5; for IC50: read-out: IC50 values (μM) Caspase-3, 10-point titration 0.1 nM to 3.3 μM, 30-minute incubation at 37° C.
Caspase-3, sequence (P42574 29-175): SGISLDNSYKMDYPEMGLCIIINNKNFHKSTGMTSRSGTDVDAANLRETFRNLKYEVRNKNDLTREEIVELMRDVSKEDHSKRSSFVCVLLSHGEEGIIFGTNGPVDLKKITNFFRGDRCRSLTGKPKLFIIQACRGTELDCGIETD
Caspase-3, sequence (P42574 176-277): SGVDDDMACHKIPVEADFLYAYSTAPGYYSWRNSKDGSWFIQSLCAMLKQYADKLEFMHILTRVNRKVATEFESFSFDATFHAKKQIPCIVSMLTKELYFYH
Method: as §3

Caspase-4 = Caspase-4 (Homo sapiens (Human), UniProt P49662); test: Fluorometric enzymatic assay, active recombinant Caspase-4; settings: read-out: IC50 values (μM) Caspase-4; 10-point titration 0.1 nM to 3.3 μM, 30-minute incubation at 37° C.
Caspase-4, sequence (P49662 81-270): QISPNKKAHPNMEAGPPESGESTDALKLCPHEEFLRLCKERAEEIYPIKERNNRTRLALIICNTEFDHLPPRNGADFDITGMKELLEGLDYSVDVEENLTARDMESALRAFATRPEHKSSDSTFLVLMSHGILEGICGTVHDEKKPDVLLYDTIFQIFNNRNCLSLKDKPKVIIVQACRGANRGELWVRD
Caspase-4, sequence (P49662 290-377): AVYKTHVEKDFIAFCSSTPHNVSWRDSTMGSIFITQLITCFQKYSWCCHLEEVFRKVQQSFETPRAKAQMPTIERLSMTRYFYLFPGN
Method: as §3

Caspase-7 = Caspase-7 (Homo sapiens (Human), UniProt P55210); test: Fluorometric enzymatic assay, active recombinant Caspase-7; settings: for IC50: read-out: IC50 values (μM) Caspase-7, 10-point titration 0.1 nM to 3.3 μM, 30-minute incubation at 37° C.
Caspase-7, sequence (P55210 whole entry, looked up): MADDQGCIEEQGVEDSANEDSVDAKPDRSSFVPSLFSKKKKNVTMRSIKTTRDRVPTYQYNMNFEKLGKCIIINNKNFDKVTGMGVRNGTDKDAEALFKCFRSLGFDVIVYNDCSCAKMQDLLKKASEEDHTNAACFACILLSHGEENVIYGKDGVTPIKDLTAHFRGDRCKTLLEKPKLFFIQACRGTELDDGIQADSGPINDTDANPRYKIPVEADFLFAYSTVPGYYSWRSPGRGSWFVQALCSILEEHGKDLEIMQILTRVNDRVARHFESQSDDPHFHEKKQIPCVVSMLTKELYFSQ
Caspase-7, sequence (P55210 whole entry, looked up): as above
Method: as §3

Caspase-9 = Caspase-9 (Homo sapiens (Human), UniProt P55211); test: Fluorometric enzymatic assay, active recombinant Caspase-9; settings: for IC50: read-out: IC50 values (μM) Caspase-9, 10-point titration 0.1 nM to 3.3 μM, 30-minute incubation at 37° C.
Caspase-9, sequence (P55211 whole entry, looked up, change not shown): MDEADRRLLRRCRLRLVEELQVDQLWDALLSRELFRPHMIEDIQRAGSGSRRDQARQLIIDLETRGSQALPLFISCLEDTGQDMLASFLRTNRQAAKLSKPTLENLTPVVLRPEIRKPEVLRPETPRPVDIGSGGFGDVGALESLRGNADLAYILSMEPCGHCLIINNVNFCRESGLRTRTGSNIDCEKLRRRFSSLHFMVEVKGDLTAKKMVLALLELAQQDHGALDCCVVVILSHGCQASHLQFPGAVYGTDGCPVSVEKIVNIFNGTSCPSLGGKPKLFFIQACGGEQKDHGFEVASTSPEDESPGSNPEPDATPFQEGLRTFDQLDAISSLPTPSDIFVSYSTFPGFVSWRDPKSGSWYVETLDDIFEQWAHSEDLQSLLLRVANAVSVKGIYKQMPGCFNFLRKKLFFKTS
Caspase-9, sequence (P55211 whole entry, looked up, change not shown): as above
Method: as §3

Caspase-10 = Caspase-10 (Homo sapiens (Human), UniProt Q92851); test: Fluorometric enzymatic assay, active recombinant Caspase-10; settings: for IC50: read-out: IC50 values (μM) Caspase-10, 10-point titration 0.1 nM to 3.3 μM, 30-minute incubation at 37° C.
Caspase-10, sequence (Q92851 220-415): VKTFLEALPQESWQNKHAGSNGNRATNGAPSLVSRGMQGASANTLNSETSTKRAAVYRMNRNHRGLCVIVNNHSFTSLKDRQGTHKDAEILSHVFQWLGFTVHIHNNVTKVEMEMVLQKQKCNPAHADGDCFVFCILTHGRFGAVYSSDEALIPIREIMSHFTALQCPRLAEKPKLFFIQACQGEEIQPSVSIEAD
Caspase-10, sequence (Q92851 416-521): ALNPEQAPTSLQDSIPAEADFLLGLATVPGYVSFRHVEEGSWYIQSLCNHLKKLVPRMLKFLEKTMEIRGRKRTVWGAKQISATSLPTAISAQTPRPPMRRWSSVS
Method: as §3

Caspase-1 to -10 = test: Fluorometric caspase enzymatic assays, positive inhibitor control (all experiments); format: biochemical; settings: Final concentration=20 uM
Method: as §1, with “In” for “. In”, “control. […]” for “control.”

[1] = FIG. 3, i.p. from day 14 to 19 post immunization, versus placebo

SMILES | Loss of body weight (EAE in C57BL/6 mice; [1]) | effects on the clinical course of EAE (EAE in C57BL/6 mice; [1]) | Delay in onset of the disease (EAE in C57BL/6 mice) | Reduction in body weight loss (EAE in C57BL/6 mice) | Reduction in severity of the disease (EAE in C57BL/6 mice) | IC50 (Caspase-2) | IC50 (Caspase-5) | IC50 (Caspase-6) | IC50 (Caspase-8) | IC50 (Caspase-1) | inhibitory activity towards Caspase-3 (Caspase-3) | IC50 (Caspase-3) | IC50 (Caspase-4) | inhibitory activity towards Caspase-7 (Caspase-7; FIG. 5) | IC50 (Caspase-7) | inhibitory activity towards Caspase-9 (Caspase-9; FIG. 5) | IC50 (Caspase-9) | inhibitory activity towards Caspase-10 (Caspase-10; FIG. 5) | IC50 (Caspase-10) | inhibition by positive inhibitor control (Caspase-1 to -10)
CC(C)[C@H](NC(=O)[C@@H](NC(=O)[C@H](CC(=O)O)NC(=O)OCc1ccccc1)c1ccccc1)C(=O)N[C@H](/C=C(\Cl)S(C)(=O)=O)CC(=O)O [Compound 123, Z-Asp-phenylglycine-Val-Asp-achlorovinyl methylsulfone] | less than in the placebo group | ameliorating effects | + | +++ | ++ | > 3.33 µM | > 3.33 µM | > 3.33 µM | > 3.33 µM | > 3.33 µM | high inhibitory activity | 0.06 µM | > 3.33 µM | high inhibitory activity | 0.5 µM | inhibitory activity | 2.8 µM | inhibitory activity | 2 µM | 
COC(=O)C[C@H](NC(=O)[C@H](C)NC(=O)[C@@H](NC(=O)OCc1ccccc1)C(C)C)C(=O)CF [Z-VAD-FMK, benzyloxycarbonyl-Val-Ala-Asp-fluoromethylketone] (Cbz-Val-Ala-Asp(OMe)-CH2F) |  |  |  |  |  |  |  |  |  |  |  |  |  |  |  |  |  |  |  | > 50%
CC(C)[C@H](NC(=O)[C@H](Cc1cccc2ccccc12)NC(=O)[C@H](CC(=O)O)NC(=O)OCc1ccccc1)C(=O)N[C@H](/C=C/S(C)(=O)=O)CC(=O)O [Compound 111, Z-Asp-3-(1-naphtyl)-L-alanine-Val-Aspmethyl vinyl sulfone] |  | ameliorating effects | + | ++ | ++ | > 3.33 µM | > 3.33 µM | > 3.33 µM | > 3.33 µM | > 3.33 µM | high inhibitory activity | 0.08 µM | > 3.33 µM |  | > 3.33 µM |  | > 3.33 µM |  | > 3.33 µM | 
